What all share (format): cell-based
One test deals with M3 (Homo sapiens, UniProt P20309). Kind of test: In vitro functional assay of muscarinic acetylcholine receptor activity, M3. The conditions noted are these: antagonist activity; M3 method not separately described.
For the next test, the target named is T1, M2 (Homo sapiens, UniProt P08172).
T1 sequence (P08172 1-466): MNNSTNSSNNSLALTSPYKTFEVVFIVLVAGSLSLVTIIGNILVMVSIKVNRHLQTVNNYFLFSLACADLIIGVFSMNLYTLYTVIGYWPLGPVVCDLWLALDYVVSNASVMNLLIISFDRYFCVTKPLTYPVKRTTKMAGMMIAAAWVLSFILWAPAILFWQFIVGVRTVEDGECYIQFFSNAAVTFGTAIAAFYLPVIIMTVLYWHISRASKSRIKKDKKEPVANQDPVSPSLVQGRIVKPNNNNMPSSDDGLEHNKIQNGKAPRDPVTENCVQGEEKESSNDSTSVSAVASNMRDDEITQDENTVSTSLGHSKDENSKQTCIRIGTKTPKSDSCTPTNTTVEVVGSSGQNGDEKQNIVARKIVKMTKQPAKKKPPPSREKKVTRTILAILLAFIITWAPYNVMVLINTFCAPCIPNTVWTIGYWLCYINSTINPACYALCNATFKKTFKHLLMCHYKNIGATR
Nature of the test: In vitro functional assay of muscarinic acetylcholine receptor activity, M2. To be noted: antagonist activity; M2 method not separately described.

For the next test, the target named is T2, human M1 receptor (Homo sapiens, UniProt P11229).
T2 construct: host or cells: CHO-K1
T2 sequence (P11229 1-460): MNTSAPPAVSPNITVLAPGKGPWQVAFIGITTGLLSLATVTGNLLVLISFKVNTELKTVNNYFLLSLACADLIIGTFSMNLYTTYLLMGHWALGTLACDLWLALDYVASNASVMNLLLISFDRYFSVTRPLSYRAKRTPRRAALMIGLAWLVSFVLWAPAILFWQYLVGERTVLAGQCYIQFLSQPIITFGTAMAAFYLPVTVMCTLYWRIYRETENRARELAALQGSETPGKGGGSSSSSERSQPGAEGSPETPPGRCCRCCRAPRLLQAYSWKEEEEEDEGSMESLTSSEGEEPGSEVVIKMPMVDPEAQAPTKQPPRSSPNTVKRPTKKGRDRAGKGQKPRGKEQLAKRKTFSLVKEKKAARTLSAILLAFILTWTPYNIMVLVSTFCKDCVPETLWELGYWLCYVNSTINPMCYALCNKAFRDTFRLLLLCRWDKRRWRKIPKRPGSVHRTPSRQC
Kind of test: In vitro functional assay of muscarinic acetylcholine receptor activity (aequorin calcium flux, antagonist mode vs EC80 acetylcholine), M1. To be noted: CHO-K1 cells stably expressing human M1 receptor with Aequorin; decrease in EC80 acetylcholine response. The method, boiled down:
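Antagonism at M1 was measured as a concentration-dependent reduction of the EC80 acetylcholine-evoked aequorin luminescence, from which IC50 was derived. Human M1 CHO-K1 aequorin cells were first loaded with 5 uM coelenterazine h for 4 h and exposed to compound for 30 min at room temperature.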

By IC50 is commonly meant the concentration needed to halve the response being measured.

Where only a bound is given, the exact number is not on record here.

Chain of M3 (P20309 whole entry): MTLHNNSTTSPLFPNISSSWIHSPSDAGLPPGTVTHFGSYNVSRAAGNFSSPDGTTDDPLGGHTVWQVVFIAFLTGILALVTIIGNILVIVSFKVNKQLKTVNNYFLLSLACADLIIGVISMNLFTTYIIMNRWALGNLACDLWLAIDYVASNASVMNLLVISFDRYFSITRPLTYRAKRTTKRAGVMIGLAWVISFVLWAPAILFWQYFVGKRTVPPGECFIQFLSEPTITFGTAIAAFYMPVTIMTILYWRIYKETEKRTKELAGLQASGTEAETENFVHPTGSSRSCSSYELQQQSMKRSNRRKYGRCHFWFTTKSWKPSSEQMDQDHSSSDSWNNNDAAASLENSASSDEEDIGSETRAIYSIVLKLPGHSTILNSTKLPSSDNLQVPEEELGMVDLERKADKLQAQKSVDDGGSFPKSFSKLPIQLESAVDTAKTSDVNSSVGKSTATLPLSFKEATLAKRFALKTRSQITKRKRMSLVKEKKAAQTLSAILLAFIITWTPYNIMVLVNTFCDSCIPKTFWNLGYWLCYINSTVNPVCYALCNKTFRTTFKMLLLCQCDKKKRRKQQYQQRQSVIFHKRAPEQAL

Regarding `O=C1[C@@H](CCCc2cccc3ncsc23)C[C@H]2CN(c3ccnc(Cl)c3)CCN12` [Example 12], the IC50 on M3 fell in the range of 1 to 10 µM; on M2 it was 1000 to 10000 nM; at human M1 receptor, 100 to 1000 nM.
The matching figures for `Nc1cc(N2CCN3C(=O)[C@@H](CCCc4cccc5ncsc45)C[C@H]3C2)ccn1` [Example 30, (7S,8aS)-2-(2-aminopyridin-4-yl)-7-(3-(benzo[d]thiazol-7-yl)propyl)hexahydropyrrolo[1,2-a]pyrazin-6(2H)-one]: 1 to 10 µM, 1000 to 10000 nM and under 100 nM.
As to `O=C1C(CCCc2cccc3ncsc23)C[C@H]2CN(c3ccncc3F)CCN12` (mixture of isomers) [Example 9, (8aS)-7-(3-(benzo[d]thiazol-7-yl)propyl)-2-(3-fluoropyridin-4-yl)hexahydropyrrolo[1,2-a]pyrazin-6(2H)-one], the IC50 against M3 is over 10 µM; on M2, 1000 to 10000 nM; at human M1 receptor, 100 to 1000 nM.
With `O=C1[C@@H](CCCc2cccc3ncnn23)C[C@H]2CN(c3cccc(C(F)(F)F)n3)CCN12` [Example 31, (7S,8aS)-7-(3-([1,2,4]triazolo[1,5-a]pyridin-5-yl)propyl)-2-(6-(trifluoromethyl)pyridin-2-yl)hexahydropyrrolo[1,2-a]pyrazin-6(2H)-one], the IC50 on M3 was over 10 µM; against M2, over 10000 nM; on human M1 receptor, 1000 to 10000 nM.
Consider `O=C1[C@@H](CCCc2cccc3ncsc23)C[C@@H]2CN(c3ccncc3F)CCN12` [Example 7, (7S,8aR)-7-(3-(benzo[d]thiazol-7-yl)propyl)-2-(3-fluoropyridin-4-yl)hexahydropyrrolo[1,2-a]pyrazin-6(2H)-one], for which the half-maximal inhibitory concentration (IC50) is over 10 µM against M3, 1000 to 10000 nM against M2 and 1000 to 10000 nM at human M1 receptor.
For the compound `O=C1[C@@H](CCCc2cccc3ncsc23)C[C@H]2CN(c3ccncc3)CCN12` [Example 28, (7S,8aS)-7-(3-(benzo[d]thiazol-7-yl)propyl)-2-(pyridin-4-yl)hexahydropyrrolo[1,2-a]pyrazin-6(2H)-one], the IC50 was 0.1 to 1 µM against M3, 100 to 1000 nM on M2 and under 100 nM on human M1 receptor.
As to `O=C1[C@@H](CCCc2cccc3ncnn23)C[C@H]2CN(c3ccc(OC(F)F)cn3)CCN12` [Example 39, (7S,8aS)-7-(3-([1,2,4]triazolo[1,5-a]pyridin-5-yl)propyl)-2-(5-(difluoromethoxy)pyridin-2-yl)hexahydropyrrolo[1,2-a]pyrazin-6(2H)-one], the IC50 against M3 is 1 to 10 µM; against M2, over 10000 nM; at human M1 receptor, 100 to 1000 nM.
Consider `O=C1C(CCCc2cccc3ncsc23)CC2CN(c3ccncc3F)CCN12` (racemic) [Example 6, 7-(3-(benzo[d]thiazol-7-yl)propyl)-2-(3-fluoropyridin-4-yl)hexahydropyrrolo[1,2-a]pyrazin-6(2H)-one], for which the results for the IC50 on M3, on M2 and on human M1 receptor were over 10 µM, 1000 to 10000 nM and 100 to 1000 nM, respectively.
Take `O=C1[C@@H](CCCc2cccc3ncnn23)C[C@H]2CN(c3ccc(CO)cn3)CCN12` [Example 53, (7S,8aS)-7-(3-([1,2,4]triazolo[1,5-a]pyridin-5-yl)propyl)-2-(5-(hydroxymethyl)pyridin-2-yl)hexahydropyrrolo[1,2-a]pyrazin-6(2H)-one]: the IC50 on M3 was over 10 µM; on M2, 1000 to 10000 nM; at human M1 receptor, under 100 nM.
Regarding `CS(=O)(=O)c1ccc(N2CCN3C(=O)[C@@H](CCCc4cccc5ncsc45)C[C@H]3C2)nc1` [Example 13, (7S,8aS)-7-(3-(benzo[d]thiazol-7-yl)propyl)-2-(5-(methylsulfonyl)pyridin-2-yl)hexahydropyrrolo[1,2-a]pyrazin-6(2H)-one], the concentration for half-maximal inhibition (IC50) is 0.1 to 1 µM at M3, 100 to 1000 nM at M2 and under 100 nM on human M1 receptor.
For the compound `O=C1[C@@H](CCCc2cccn3nccc23)C[C@H]2CN(c3ncc(F)cn3)CCN12` [Example 88, (7S,8aS)-2-(5-fluoropyrimidin-2-yl)-7-(3-(pyrazolo[1,5-a]pyridin-4-yl)propyl)hexahydropyrrolo[1,2-a]pyrazin-6(2H)-one], the results for the IC50 at M3, against M2 and at human M1 receptor were 1 to 10 µM, 1000 to 10000 nM and under 100 nM, respectively.
Take `Cn1ncc2cccc(CCC[C@H]3C[C@H]4CN(c5ccc(C#N)cn5)CCN4C3=O)c21` [Example 55, 6-((7S,8aS)-7-(3-(1-methyl-1H-indazol-7-yl)propyl)-6-oxohexahydropyrrolo[1,2-a]pyrazin-2(1H)-yl)nicotinonitrile]: the IC50 at M3 lay within 1 to 10 µM; against M2, 1000 to 10000 nM; on human M1 receptor, 100 to 1000 nM.
Regarding `O=C1[C@@H](CCCc2cccc3ncnn23)C[C@H]2CN(c3ccc(C(F)(F)F)cn3)CCN12` [Example 32, (7S,8aS)-7-(3-([1,2,4]triazolo[1,5-a]pyridin-5-yl)propyl)-2-(5-(trifluoromethyl)pyridin-2-yl)hexahydropyrrolo[1,2-a]pyrazin-6(2H)-one], the IC50 at M3 is 1 to 10 µM; at M2, 100 to 1000 nM; at human M1 receptor it was under 100 nM.
Consider `N#Cc1cc(N2CCN3C(=O)[C@@H](CCCc4cccc5ncnn45)C[C@H]3C2)ccc1F` [Example 52, 5-((7S,8aS)-7-(3-([1,2,4]triazolo[1,5-a]pyridin-5-yl)propyl)-6-oxohexahydropyrrolo [1,2-a]pyrazin-2(1H)-yl)-2-fluorobenzonitrile], for which the IC50 fell in the range of 1 to 10 µM at M3, 100 to 1000 nM against M2 and 100 to 1000 nM at human M1 receptor.
